We go through 8 molecules from US20230017045A1, “PYRIDINE AND PYRIMIDINE CARBOXYLATE HERBICIDES AND METHODS OF USE THEREOF” (Dow AgroSciences LLC, priority 2017, published 2023).

The subject of this assay is test plant species. Kind of assay: Post-emergent herbicidal activity test (greenhouse, foliar spray, visual growth reduction). It counts as in vivo. The following applies: post-emergence, 336 h, 140 g ai/ha, 14 days after application. Summed up:
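Seedlings were raised 7-21 d in a greenhouse under a 15 h photoperiod until the first or second true leaf. Each compound, dissolved in acetone:DMSO 97:3 and diluted into a surfactant-containing spray mixture, was then applied at 187 L/ha. Plants were subirrigated, and growth reduction was scored visually at 14 d.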

Setting [1] is: ALOMY: blackgrass (Alopecurus myosuroides), read-out: Visual Growth Reduction (%) 14 Days After Application, ALOMY.
Where [2] appears, read: AMARE: redroot pigweed (Amaranthus retroflexus), read-out: Visual Growth Reduction (%) 14 Days After Application, AMARE.
The mark [3] stands for this setting: AVEFA: wild oat (Avena fatua), read-out: Visual Growth Reduction (%) 14 Days After Application, AVEFA.
Setting [4] is: CHEAL: lambsquarters (Chenopodium album), read-out: Visual Growth Reduction (%) 14 Days After Application, CHEAL.
Where [5] appears, read: CIRAR: canada thistle (Cirsium arvense), read-out: Visual Growth Reduction (%) 14 Days After Application, CIRAR.
Where [6] appears, read: CYPES: yellow nutsedge (Cyperus esculentus), read-out: Visual Growth Reduction (%) 14 Days After Application, CYPES.
Where [7] appears, read: DIGSA: crabgrass (Digitaria sanguinalis), read-out: Visual Growth Reduction (%) 14 Days After Application, DIGSA.
Where [8] appears, read: ECHCG: barnyardgrass (Echinochloa crus-galli), read-out: Visual Growth Reduction (%) 14 Days After Application, ECHCG.
The mark [9] stands for this setting: IPOHE: ivy-leaf morning glory (Ipomoea hederacea), read-out: Visual Growth Reduction (%) 14 Days After Application, IPOHE.
Where [10] appears, read: KCHSC: kochia (Bassia scoparia), read-out: Visual Growth Reduction (%) 14 Days After Application, KCHSC.
Setting [11] is: ORYSA: rice (Oryza sativa), read-out: Visual Growth Reduction (%) 14 Days After Application, ORYSA.
The mark [12] stands for this setting: SETFA: giant foxtail (Setaria faberi), read-out: Visual Growth Reduction (%) 14 Days After Application, SETFA.
The mark [13] stands for this setting: SORVU: grain sorghum (Sorghum vulgare), read-out: Visual Growth Reduction (%) 14 Days After Application, SORVU.
Where [14] appears, read: STEME: common chickweed (Stellaria media), read-out: Visual Growth Reduction (%) 14 Days After Application, STEME.
[15] abbreviates: TRZAS: wheat, spring (Triticum aestivum), read-out: Visual Growth Reduction (%) 14 Days After Application, TRZAS.

The structures appear in SMILES notation. Like-named read-outs stand apart in the source and are kept apart here.

In the case of `COC(=O)c1nc(-c2ccc(C(F)(F)F)c(S(C)(=O)=O)c2Cl)ccc1Cl` [F139, methyl 3-chloro-6-(2-chloro-3-(methylsulfonyl)-4-(trifluoromethyl)phenyl)picolinate], the pest or weed control at 140 g/ha lay in the range of 0 to 29% under setting [1]; 0 to 29% under setting [2]; 0 to 29% under setting [3]; 0 to 29% under setting [4]; 0 to 29% under setting [5]; 30 to 44% under setting [6]. Besides, the pest or weed control at 140 g/ha is, setting by setting: under setting [7], 0 to 29%; under setting [8], 0 to 29%; under setting [9], 0 to 29%; under setting [10], 0 to 29%; under setting [11], 0 to 29%; under setting [12], 0 to 29%. For the same molecule, the pest or weed control at 140 g/ha runs as follows: under setting [13], 0 to 29%; under setting [14], 0 to 29%; under setting [15], 0 to 29%.

`COC(=O)c1nc(-c2ccc(C(F)(F)F)c(Br)c2Cl)ccc1Cl` [F140, methyl 6-(3-bromo-2-chloro-4-(trifluoromethyl)phenyl)-3-chloropicolinate]: the pest or weed control at 140 g/ha by setting is: under setting [1], 0 to 29%; under setting [2], 85 to 94%; under setting [3], 0 to 29%; under setting [4], 85 to 94%; under setting [5], 45 to 59%; under setting [6], 0 to 29%. For the same molecule, the pest or weed control at 140 g/ha runs as follows: under setting [7], 85 to 94%; under setting [8], 0 to 29%; under setting [9], 95 to 100%; under setting [10], 0 to 29%; under setting [11], 0 to 29%; under setting [12], 75 to 84%. For the same molecule, the pest or weed control at 140 g/ha runs as follows: under setting [13], 85 to 94%; under setting [14], 0 to 29%; under setting [15], 0 to 29%.

Take `CO/N=C/c1c(C(F)(F)F)ccc(-c2ccc(Cl)c(C(=O)OC)n2)c1Cl` [F141, Methyl (E)-3-chloro-6-(2-chloro-3-((methoxyimino)methyl)-4-(trifluoromethyl)phenyl)picolinate]: the pest or weed control at 140 g/ha runs as follows: under setting [1], 0 to 29%; under setting [2], 75 to 84%; under setting [3], 0 to 29%; under setting [4], 0 to 29%; under setting [5], 0 to 29%; under setting [6], 0 to 29%. Besides, the pest or weed control at 140 g/ha is 60 to 74% under setting [7]; 0 to 29% under setting [8]; 0 to 29% under setting [9]; 60 to 74% under setting [10]; 0 to 29% under setting [11]; 0 to 29% under setting [12]. For the same molecule, the pest or weed control at 140 g/ha under setting [13] was 0 to 29%, the pest or weed control at 140 g/ha under setting [14] fell in the range of 0 to 29% and the pest or weed control at 140 g/ha under setting [15] was in the range of 0 to 29%.

As to `COC(=O)c1nc(-c2ccc(C(F)(F)F)c(/C=N/N(C)C)c2Cl)ccc1Cl` [F142, Methyl (E)-3-chloro-6-(2-chloro-3-((2,2-dimethylhydrazono)methyl)-4-(trifluoromethyl)phenyl)picolinate], the pest or weed control at 140 g/ha by setting is: under setting [1], 0 to 29%; under setting [2], 60 to 74%; under setting [3], 0 to 29%; under setting [4], 30 to 44%; under setting [5], 0 to 29%; under setting [6], 0 to 29%. In addition, the pest or weed control at 140 g/ha was 0 to 29% under setting [7]; 0 to 29% under setting [8]; 60 to 74% under setting [9]; 0 to 29% under setting [10]; 0 to 29% under setting [11]; 0 to 29% under setting [12]. Moreover, the pest or weed control at 140 g/ha reads like this: under setting [13], 60 to 74%; under setting [14], 0 to 29%; under setting [15], 0 to 29%.

In the case of `COC(=O)c1nc(-c2ccc(C(F)(F)F)c(C#N)c2Cl)ccc1Cl` [F143, methyl 3-chloro-6-(2-chloro-3-cyano-4-(trifluoromethyl)phenyl)picolinate], the pest or weed control at 140 g/ha is 0 to 29% under setting [1]; 45 to 59% under setting [2]; 0 to 29% under setting [3]; 30 to 44% under setting [4]; 0 to 29% under setting [5]; 0 to 29% under setting [6]. For the same molecule, the pest or weed control at 140 g/ha reads like this: under setting [7], 75 to 84%; under setting [8], 0 to 29%; under setting [9], 75 to 84%; under setting [10], 0 to 29%; under setting [11], 0 to 29%; under setting [12], 0 to 29%. The pest or weed control at 140 g/ha under setting [13] was 60 to 74%, the pest or weed control at 140 g/ha under setting [14] is 0 to 29% and the pest or weed control at 140 g/ha under setting [15] lay in the range of 0 to 29%.

On to `COC(=O)c1nc(-c2cc3c(cc2Cl)OCO3)ccc1Cl` [F144, Methyl 3-chloro-6-(6-chlorobenzo[d] [1,3]dioxol-5-yl) picolinate], for which the pest or weed control at 140 g/ha under setting [1] fell in the range of 0 to 29%; the pest or weed control at 140 g/ha under setting [2] was 45 to 59%; the pest or weed control at 140 g/ha under setting [3] was 0 to 29%; the pest or weed control at 140 g/ha under setting [4] is 75 to 84%; the pest or weed control at 140 g/ha under setting [5] was in the range of 0 to 29%; the pest or weed control at 140 g/ha under setting [6] is 0 to 29%. Further, the pest or weed control at 140 g/ha fell in the range of 0 to 29% under setting [7]; 0 to 29% under setting [8]; 75 to 84% under setting [9]; 0 to 29% under setting [10]; 0 to 29% under setting [11]; 0 to 29% under setting [12]. Further, the pest or weed control at 140 g/ha by setting is: under setting [13], 0 to 29%; under setting [14], 0 to 29%; under setting [15], 0 to 29%.

For `COC(=O)c1nc(-c2ccc(C(F)(F)F)cc2C(N)=O)ccc1Cl` [F146, Methyl 6-(2-carbamoyl-4-(trifluoromethyl)phenyl)-3-chloropicolinate], the pest or weed control at 140 g/ha by setting is: under setting [1], 0 to 29%; under setting [2], 0 to 29%; under setting [3], 0 to 29%; under setting [4], 0 to 29%; under setting [5], 0 to 29%; under setting [6], 0 to 29%. Also, the pest or weed control at 140 g/ha is, setting by setting: under setting [7], 0 to 29%; under setting [8], 0 to 29%; under setting [9], 30 to 44%; under setting [10], 0 to 29%; under setting [11], 0 to 29%; under setting [12], 0 to 29%. In addition, the pest or weed control at 140 g/ha runs as follows: under setting [13], 0 to 29%; under setting [14], 0 to 29%; under setting [15], 0 to 29%.

Take `COC(=O)c1nc(-c2ccc(C(F)(F)F)cc2C(N)=O)c(Cl)cc1Cl` [F147, Methyl 6-(2-carbamoyl-4-(trifluoromethyl)phenyl)-3,5-dichloropicolinate]: the pest or weed control at 140 g/ha lay within 0 to 29% under setting [1]; 45 to 59% under setting [2]; 0 to 29% under setting [3]; 30 to 44% under setting [4]; 0 to 29% under setting [5]; 0 to 29% under setting [6]. Moreover, the pest or weed control at 140 g/ha was 0 to 29% under setting [7]; 0 to 29% under setting [8]; 30 to 44% under setting [9]; 0 to 29% under setting [10]; 0 to 29% under setting [11]; 0 to 29% under setting [12]. The pest or weed control at 140 g/ha is 0 to 29% under setting [13], 0 to 29% under setting [14] and 0 to 29% under setting [15].
